Reference: ChEMBL document CHEMBL4219171, “Synthesis and investigations into the anticancer and antibacterial activity studies of β-carboline chalcones and their bromide salts” (Bioorg Med Chem Lett, 2018)
pIC50: −log10 of the molar value. In brackets after ≈: the same amount, converted by molar mass. Activity calls are given as the source filed them. The calls are words filed in the database; no cut-off is given here.

Tests used:
MDA-MB-231 [1] = assay: Cytotoxicity against human MDA-MB-231 cells after 48 hrs by MTT assay; type: functional, cell-based; conditions: MDA-MB-231, 48 h
NIH3T3 = assay: Cytotoxicity against mouse NIH/3T3 cells after 48 hrs by MTT assay; type: cell-based; conditions: NIH3T3, 48 h
PC-3 = assay: Cytotoxicity against human PC3 cells after 48 hrs by MTT assay; type: functional, cell-based; conditions: PC-3, 48 h
HeLa = assay: Cytotoxicity against human HeLa cells after 48 hrs by MTT assay; type: functional, cell-based
LNCaP C4-2 = assay: Cytotoxicity against human C4-2 cells after 48 hrs by MTT assay; type: functional, cell-based; conditions: LNCaP C4-2, 48 h
Staphylococcus aureus [2] = assay: Antibacterial activity against Staphylococcus aureus MTCC 96 assessed as zone of inhibition measured after 18 hrs by disc diffusion method; type: functional
BXPC-3 = assay: Cytotoxicity against human BxPC3 cells after 48 hrs by MTT assay; type: functional, cell-based; conditions: BXPC-3, 48 h
HEK-293T = assay: Cytotoxicity against human HEK293T cells after 48 hrs by MTT assay; type: cell-based
Bacillus subtilis [3] = assay: Antibacterial activity against Bacillus subtilis MTCC 121 assessed as zone of inhibition measured after 18 hrs by disc diffusion method; type: functional
Pseudomonas aeruginosa = assay: Antibacterial activity against Pseudomonas aeruginosa MTCC 424 assessed as zone of inhibition measured after 18 hrs by disc diffusion method; type: functional
Enterobacter cloacae [4] = assay: Antibacterial activity against Enterobacter cloacae NAIMCC-B-02025 assessed as zone of inhibition measured after 18 hrs by disc diffusion method; type: functional
Enterobacter cloacae [5] = assay: Antibacterial activity against Enterobacter cloacae NAIMCC-B-02025 after 24 hrs by broth microdilution assay; type: functional; conditions: NAIMCC-B-02025, 24 h
Staphylococcus aureus [6] = assay: Antibacterial activity against Staphylococcus aureus MTCC 96 after 24 hrs by broth microdilution assay; type: functional; conditions: MTCC 96, 24 h
Escherichia coli = assay: Antibacterial activity against Escherichia coli MTCC 1652 assessed as zone of inhibition measured after 18 hrs by disc diffusion method; type: functional
Bacillus subtilis [7] = assay: Antibacterial activity against Bacillus subtilis MTCC 121 after 24 hrs by broth microdilution assay; type: functional; conditions: MTCC 121, 24 h
MDA-MB-231 [8] = assay: Induction of apoptosis in human MDA-MB-231 cells assessed as morphological changes after 24 hrs by acridine orange/ethidium bromide-dual staining based fluorescence microscopic method; type: functional, cell-based

Structure (SMILES) | MIC (Enterobacter cloacae [5]) [µM] | MIC (Staphylococcus aureus [6]) [µM] | MIC (Bacillus subtilis [7]) [µM] | pIC50 (MDA-MB-231 [1]) | pIC50 (NIH3T3) | pIC50 (PC-3) | pIC50 (HeLa) | pIC50 (LNCaP C4-2) | inhibition zone (IZ) (Staphylococcus aureus [2]) [mm] | pIC50 (BXPC-3) | pIC50 (HEK-293T) | inhibition zone (IZ) (Bacillus subtilis [3]) [mm] | inhibition zone (IZ) (Pseudomonas aeruginosa) [mm] | inhibition zone (IZ) (Enterobacter cloacae [4]) [mm] | inhibition zone (IZ) (Escherichia coli) [mm] | Activity (MDA-MB-231 [8])
CCCC[n+]1ccc2c([nH]c3ccccc32)c1C(=O)/C=C/c1ccc(OC)cc1.[Br-] | – | – | – | 4.39 | 4.13 | 4.19 | 4.35 | 4.41 | 9 | 4.29 | 4.45 | – | – | – | – | –
CCCC[n+]1ccc2c([nH]c3ccccc32)c1C(=O)/C=C/c1ccc2c(c1)OCO2.[Br-] | – | – | – | < 4.00 | < 4.00 | < 4.00 | < 4.00 | < 4.00 | 9 | < 4.00 | < 4.00 | 7 | – | – | – | –
C#CC[n+]1ccc2c([nH]c3ccccc32)c1C(=O)/C=C/c1ccc(OC)cc1.[Br-] | – | – | – | < 4.00 | < 4.00 | < 4.00 | < 4.00 | < 4.00 | 9 | < 4.00 | < 4.00 | – | 7 | 6 | – | –
O=C(/C=C/c1ccc(C(F)(F)F)cc1)c1nccc2c1[nH]c1ccccc12 | 726 (≈ 266 µg/mL) | 710 (≈ 260 µg/mL) | – | – | – | – | – | – | 11 | – | – | – | – | 11 | 10 | –
O=C(/C=C/c1ccc2c(c1)OCO2)c1nccc2c1[nH]c1ccccc12 | – | – | – | < 4.00 | < 4.00 | < 4.00 | < 4.00 | < 4.00 | – | < 4.00 | < 4.00 | – | – | – | – | –
Cc1ccc(/C=C/C(=O)c2nccc3c2[nH]c2ccccc23)cc1 | 828 (≈ 259 µg/mL) | 820 (≈ 256 µg/mL) | 720 (≈ 225 µg/mL) | < 4.00 | < 4.00 | < 4.00 | < 4.00 | < 4.00 | 10 | < 4.00 | < 4.00 | 12 | – | 10 | – | –
O=C(/C=C/c1ccc2c(c1)OCO2)c1c2[nH]c3ccccc3c2cc[n+]1Cc1ccccc1.[Br-] | – | – | – | 4.32 | 4.08 | 4.10 | 4.34 | 4.38 | 7 | 4.26 | 4.26 | 6 | – | 8 | – | –
CN(C)c1ccc(/C=C/C(=O)c2nccc3c2[nH]c2ccccc23)cc1 | 880 (≈ 300 µg/mL) | 715 (≈ 244 µg/mL) | 870 (≈ 297 µg/mL) | – | – | – | – | – | 11 | – | – | 8 | – | 8 | 8 | –
O=C(N[C@H](CO)[C@H](O)c1ccc([N+](=O)[O-])cc1)C(Cl)Cl [CHLORAMPHENICOL] | 24 (≈ 7.76 µg/mL) | 17 (≈ 5.49 µg/mL) | 32 (≈ 10.3 µg/mL) | – | – | – | – | – | 22 | – | – | 22 | 21 | 20 | 22 | –
C#CC[n+]1ccc2c([nH]c3ccccc32)c1C(=O)/C=C/c1ccc2c(c1)OCO2.[Br-] | – | – | – | 4.67 | 4.14 | 4.53 | 4.60 | 4.61 | 9 | 4.52 | 4.72 | 7 | 7 | 6 | – | –
COc1ccc(/C=C/C(=O)c2nccc3c2[nH]c2ccccc23)cc1 | 846 (≈ 278 µg/mL) | 733 (≈ 241 µg/mL) | 885 (≈ 291 µg/mL) | < 4.00 | < 4.00 | < 4.00 | < 4.00 | < 4.00 | 12 | < 4.00 | < 4.00 | 8 | 8 | 9 | – | –
COc1cccc2c1C(=O)c1c(O)c3c(c(O)c1C2=O)C[C@@](O)(C(=O)CO)C[C@@H]3O[C@H]1C[C@H](N)[C@H](O)[C@H](C)O1 [DOXORUBICIN] | – | – | – | 5.11 | 4.67 | 4.99 | – | 5.49 | – | 4.87 | 5.44 | – | – | – | – | Active

More lines, main results first:

MIC (Enterobacter cloacae [5]) [µM] | MIC (Staphylococcus aureus [6]) [µM] | MIC (Bacillus subtilis [7]) [µM] | Structure (SMILES) | pIC50 (MDA-MB-231 [1]) | pIC50 (NIH3T3) | pIC50 (PC-3) | pIC50 (HeLa) | pIC50 (LNCaP C4-2) | inhibition zone (IZ) (Staphylococcus aureus [2]) [mm] | pIC50 (BXPC-3) | pIC50 (HEK-293T) | inhibition zone (IZ) (Bacillus subtilis [3]) [mm] | inhibition zone (IZ) (Pseudomonas aeruginosa) [mm] | inhibition zone (IZ) (Enterobacter cloacae [4]) [mm] | inhibition zone (IZ) (Escherichia coli) [mm] | Activity (MDA-MB-231 [8])
874 | 440 | 875 | COc1ccc(/C=C/C(=O)c2c3[nH]c4ccccc4c3cc[n+]2Cc2ccccc2)cc1.[Br-] | 4.28 | 4.07 | 4.05 | 4.22 | 4.18 | 15 | 4.30 | 4.38 | 8 | – | 8 | 8 | –
590 | – | – | C#CC[n+]1ccc2c([nH]c3ccccc32)c1C(=O)/C=C/c1cc(OC)c(OC)c(OC)c1.[Br-] | 4.22 | 4.06 | 4.21 | 4.15 | 4.18 | 9 | 4.14 | 4.26 | – | 9 | 13 | – | –
834 (≈ 324 µg/mL) | > 900 | – | COc1cc(/C=C/C(=O)c2nccc3c2[nH]c2ccccc23)cc(OC)c1OC | 4.15 | < 4.00 | < 4.00 | 4.12 | 4.15 | 7 | 4.15 | 4.09 | – | – | 10 | – | –
806 | 812 | – | CCCC[n+]1ccc2c([nH]c3ccccc32)c1C(=O)/C=C/c1cc(OC)c(OC)c(OC)c1.[Br-] | 4.49 | 4.16 | 4.40 | 4.45 | 4.40 | 10 | 4.60 | 4.46 | – | 12 | 10 | 8 | –
726 | – | – | COc1cc(/C=C/C(=O)c2c3[nH]c4ccccc4c3cc[n+]2Cc2ccccc2)cc(OC)c1OC.[Br-] | 4.80 | 4.26 | 4.66 | 4.66 | 4.79 | 9 | 4.70 | 4.76 | 7 | – | 12 | – | Active
– | – | 838 (≈ 250 µg/mL) | O=C(/C=C/c1ccccc1)c1nccc2c1[nH]c1ccccc12 | 4.15 | < 4.00 | 4.03 | 4.08 | 4.10 | – | 4.14 | 4.18 | 9 | – | – | – | –
